Earlier results in PMC9050811 (RSC Advances, 2020).

Experiments:
DNA supercoiling = settings: read-out: IC50 in the DNA supercoiling assay; cited from earlier work
MTB = settings: cited from earlier work
MTB H37Rv = settings: cited from earlier work

Row | SMILES | IC50 (DNA supercoiling) | MTB MIC (MTB) | MTB MIC against H37Rv (MTB H37Rv)
1 | COc1cnc2ccc(=O)n(CCN3CCN(C(=O)Nc4ccc([N+](=O)[O-])cc4)CC3)c2c1 [4-(2-(7-methoxy-2-oxo-1,5-naphthyridin-1-(2H)-yl)ethyl)-N-(4-nitrophenyl)piperazine-1-carboxamide] | 290 nM | 3.45 µM | –
2 | O=S(=O)(c1ccccc1)n1cc(CN2CCN(c3nc4ccccc4c4ccccc34)CC2)nn1 [G, 6-(4-((1-(phenylsulfonyl)-1H-1,2,3-triazol-4-yl)methyl)piperazin-1-yl)phenanthridine] | – | – | 1.56 µg/mL
3 | c1ccc(N2CCN(c3nc4ccccc4c4ccccc34)CC2)nc1 [H, 6-(4-(pyridin-2-yl)piperazin-1-yl)phenanthridine] | – | – | 1.56 µg/mL
4 | O=c1nc(N2CCN(C(=S)Nc3ccc(Cl)cc3)CC2)sc2ccc([N+](=O)[O-])cc12 [N-(4-chlorophenyl)-4-(6-nitro-4-oxo-4H-benzo[e][1,3]thiazin-2-yl)piperazine-1-carbothioamide] | 510 nM | 4.41 µM | –
